# Measurements as given in patent US7109193B2, “Tricyclic diazepines tocolytic oxytocin receptor antagonists” (Wyeth, priority 2001, dated 2006).
# Target: T1, human oxytocin receptor (Homo sapiens, UniProt P30559)
# T1 construct: host or cells: CHO cells (pcDNA3.1 vector)
# T1 sequence (P30559 1-389): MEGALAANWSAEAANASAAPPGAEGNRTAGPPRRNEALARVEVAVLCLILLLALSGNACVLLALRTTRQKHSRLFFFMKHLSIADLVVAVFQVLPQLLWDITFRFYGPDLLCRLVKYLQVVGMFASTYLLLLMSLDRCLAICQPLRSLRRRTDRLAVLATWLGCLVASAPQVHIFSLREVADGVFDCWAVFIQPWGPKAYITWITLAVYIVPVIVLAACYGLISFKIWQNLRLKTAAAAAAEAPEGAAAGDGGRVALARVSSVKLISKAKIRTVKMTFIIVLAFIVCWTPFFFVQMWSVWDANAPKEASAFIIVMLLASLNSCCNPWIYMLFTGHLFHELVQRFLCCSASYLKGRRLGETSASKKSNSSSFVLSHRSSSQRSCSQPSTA
# Assay: Oxytocin binding in Chinese Hamster Ovary cell membranes expressing human oxytocin receptors
# Details: 100 nM, CHO cell membranes, [3H]oxytocin, values without parentheses
# Protocol: Oxytocin Binding in Chinese Hamster Ovary Cell Membranes Expressing Human Oxytocin Receptors
# The trypsin is removed by aspiration and the cells dislodged by tapping. Cell Culture medium (e.g. 30 mL for 1:30 split) is immediately added and mixed well to inactivate trypsin. 1 mL of detached cells is added to new culture flasks containing fresh Cell Culture medium (e.g. into 25 mL per T-150 flask), and mixed gently. The cells are incubated at 37° C. in 5% CO2. The medium is changed at 3 to 4 days interval (or as appropriate). […] All steps are done under sterile conditions. B. Membrane Preparation: The cells are washed twice gently with Hank's Balanced Salt solution (e.g., use 10 mL per T-150 flask). […] The contents are transferred to centrifuge tubes (50 mL size) kept in ice bath. All subsequent steps are done at 4° C. The tubes are centrifuged at 300×g for 15 min (1380 rpm on SORVAL, Model RT6000D, using rotor for 50 mL tubes). The supernatant is discarded and the cells suspended in homogenizing buffer (10 mM Tris-HCl containing 0.25 M sucrose and 1 mM EDTA, pH 7.4) ensuring that the volume of the buffer is about ten times the volume of the cell pellet. The cells are pooled into a centrifuge tube (50 mL) and homogenized with a Polytron at setting 6 for 10 sec. The homogenate is transferred into a Potter-Elvjehm homogenizer and homogenized with 3 strokes. The homogenate is centrifuged at 1500×g for 10 min at 4° C. (3100 rpm using SORVAL, model RT6000D, using rotor for 50 mL tubes). The pellet is discarded. The supernatant is centrifuged at 100,000×g for 60 min. at 4° C. (Beckman L8-80M ultracentrifuge; spin at 37,500 rpm with rotor type 70 Ti for 50 mL tubes; 38,000 rpm with type 80Ti for 15 mL tubes; or 35,800 rpm with rotor type 45Ti). The supernantant is discarded and the pellet suspended in 3 to 4 mL of Tris buffer (50 mM TRIS-HCl, pH 7.4). The protein content is estimated by the Bradford or Lowry method. The volume of the membrane suspension is adjusted with the membrane buffer (50 mM Tris-HCl containing 0.1% BSA and 0.1 mM PMSF) to give 3.0 mg/mL (or as appropriate) of protein. The membranes are aliquoted and stored at −70° C. C. Radioligand Binding Assay: In wells of a 96-well format microtiter plate, is added 90, 110 or 130 μL (to make up a final volume of 200 μL) of assay buffer containing 50 mM of Tris-HCl (pH 7.4), […], 1 mg % aprotinin, 1 mg % leupeptin, 2 mg % 1,10-phenanthroline, 10 mg % trypsin inhibitor, and 0.1 mM PMSF. The inhibitors are added on the day of the experiment. The components are mixed at room temperature, and then kept in ice bath following adjustment of the pH to 7.4. […] For oxytocin and other peptide ligands, 20 μL of 50% DMSO is added and the assay buffer volume is adjusted accordingly. To each well is added 50 μL of frozen membrane suspension thawed immediately prior to use and diluted in assay buffer to the required concentration (equivalent to 25 to 50 μg of protein/well as needed). 20 μL of 8 nM [^3H]oxytocin in the assay buffer, prepared just before use is added and incubated at room temperature for 60 min. shaking the plate on a mechanical shaker for the first 15 min. The incubation is stopped by rapid filtration of the plate contents followed by washing with ice-cold buffer (50 mM Tris-HCl, pH 7.4) using a cell harvester (Tomtek and Printed filtermat-B filter paper). The filter paper is thoroughly dried (7–12 min. in a microwave oven) and impregnated with MeltiLex B/H melt-on scintillation wax sheets and the radioactivity counted in a betaplate scintillation counter.
# Binding data is either reported as percent inhibition at a certain concentration or if an IC50 was calculated, as a nanomolar concentration.
row,SMILES,OT % inhibition @ 100% nM [%]
1,"COc1cccc(-c2cc(OC)c(C(=O)N3Cc4ccc(C(=O)N5CC[C@@H](N(C)C)C5)n4Cc4ccccc43)cc2Cl)c1 [Example 275, {10-[(6-Chloro-3,3′-dimethoxy[1,1′-biphenyl]-4-yl)carbonyl]-10,11-dihydro-5H-pyrrolo[2,1-c][1,4]benzodiazepin-3-yl}[(3R)-3-(dimethylamino)pyrrolidinyl]methanone]",89
2,"CN(C)[C@@H]1CCN(C(=O)c2ccc3n2Cc2ccccc2N(C(=O)c2ccc(-c4cccc5ccccc45)cc2Cl)C3)C1 [Example 277, {10-[2-Chloro-4-(1-naphthyl)benzoyl]-10,11-dihydro-5H-pyrrolo[2,1-c][1,4]benzodiazepin-3-yl}[(3R)-3-(dimethylamino)pyrrolidinyl]methanone]",41
3,"COc1cccc(-c2ccc(C(=O)N3Cc4ccc(C(=O)N5CCC[C@H]5CN5CCCC5)n4Cc4ccccc43)cc2OC)c1 [Example 270, {10-[(2,3′-Dimethoxy[1,1′-biphenyl]-4-yl)carbonyl]-10,11-dihydro-5H-pyrrolo[2,1-c][1,4]benzodiazepin-3-yl}[(2S)-2-(1-pyrrolidinylmethyl)pyrrolidinyl]methanone]",95
4,"COc1cccc(-c2cc(OC)c(C(=O)N3Cc4ccc(C(=O)N5CCN(CCN6CCOCC6)CC5)n4Cc4ccccc43)cc2Cl)c1 [Example 212, {10-[(6-Chloro-3,3′-dimethoxy[1,1′-biphenyl]-4-yl)carbonyl]-10,11-dihydro-5H-pyrrolo[2,1-c][1,4]benzodiazepin-3-yl}{4-[2-(4-morpholinyl)ethyl]-1-piperazinyi}methanone]",95
5,"COc1cc(-c2ccccc2C)c(Cl)cc1C(=O)N1Cc2ccc(C(=O)N3CCC[C@H]3CN3CCCC3)n2Cc2ccccc21 [Example 267, {10-[(6-Chloro-3-methoxy-2′-methyl[1,1′-biphenyl]-4-yl)carbonyl]-10,11-dihydro-5H-pyrrolo[2,1-c][1,4]benzodiazepin-3-yl}[(2S)-2-(1-pyrrolidinylmethyl)pyrrolidinyl]methanone]",93
6,"COc1cc(C(=O)N2Cc3ccc(C(=O)N(C)CCCN(C)C)n3Cc3ccccc32)ccc1-n1c(C)ccc1C [Example 310, N-[3-(Dimethylamino)propyl]-10-[4-(2,5-dimethyl-i H-pyrrol-1-yl)-3-methoxybenzoyl]-N-methyl-10,11-dihydro-5H-pyrrolo[2,1-c][1,4]benzodiazepine-3-carboxamide]",58
7,"COc1cc2c(cc1OC)N(C(=O)c1ccc(-c3ccccc3C(F)(F)F)c(C)c1)Cc1ccc(C(=O)N(C)CCCN(C)C)n1C2.Cl [Example 13, N-Methyl-[N-(3-dimethylamino)propyl]-7,8-dimethoxy-10-{[2-methyl-2′-(trifluoromethyl)[1,1′-biphenyl]-4-yl]carbonyl}-10,11-dihydro-5H-pyrrolo[2,1-c][1,4]benzodiazepine-3-carboxamide hydrochloride salt]",33
8,"COc1ccccc1-c1ccc(C(=O)N2Cc3ccc(C(=O)N4CC[C@@H](N(C)C)C4)n3Cc3ccccc32)cc1OC [Example 282, {10-[(2,2′-Dimethoxy[1,1′-biphenyl]-4-yl)carbonyl]-10,11-dihydro-5H-pyrrolo[2,1-c][1,4]benzodiazepin-3-yl][(3R)-3-(dimethylamino)pyrrolidinyl]methanone]",84
9,"COc1ccccc1-c1ccc(C(=O)N2Cc3ccc(C(=O)N4CC[C@@H](N(C)C)C4)n3Cc3ccccc32)cc1 [Example 279, [(3R)-3-(Dimethylamino)pyrrolidinyl]{10-[(2′-methoxy[1,1′-biphenyl]-4-yl)carbonyl]-10,11-dihydro-5H-pyrrolo[2,1-c][1,4]benzodiazepin-3-yl}methanone]",100
10,"Cc1ccccc1-c1ccc(C(=O)N2Cc3ccc(C(=O)N4CC[C@@H](N(C)C)C4)n3Cc3ccccc32)cc1C [Example 274, [(3R)-3-(Dimethylamino)pyrrolidinyl]{10-[(2,2′-dimethyl[1,1′-biphenyl]-4-yl)carbonyl]-10,11-dihydro-5H-pyrrolo[2,1-c][1,4]benzodiazepin-3-yl}methanone]",103

# Same assay, conditions: 100 nM, CHO cell membranes, [3H]oxytocin, values without parentheses, read-out: OT % inhibition @ 100% nM
row,SMILES,inhibition at 0.1 µM [%]
1,"COc1ccccc1-c1ccc(C(=O)N2Cc3ccc(C(=O)NCCCn4ccnc4)n3Cc3ccccc32)cc1C [Example 123, N-[3-(1H-Imidazol-1-yl)propyl]-10-[(2′-methoxy-2-methyl[1,1′-biphenyl]-4-yl)carbonyl]-10,11-dihydro-5H-pyrrolo[2,1-c][1,4]benzodiazepine-3-carboxamide]",47
2,"COc1ccccc1-c1ccc(C(=O)N2Cc3ccc(C(=O)N4CCC(N5CCCCC5)CC4)n3Cc3ccccc32)cc1C [Example 112, {10-[(2-Methyl-2′-methoxy[1,1′-biphenyl]-4-yl)carbonyl]-10,11-dihydro-5H-pyrrolo[2,1-c][1,4]benzodiazepin-3-yl}[4-(1-piperidinyl)-1-piperidinyl]methanone]",89
3,"COc1cccc(-c2ccc(C(=O)N3Cc4ccc(C(=O)N5CCC(N6CCCCC6)CC5)n4Cc4ccccc43)cc2C)c1 [Example 114, {10-[(2-Methyl-3′-methoxy[1,1′-biphenyl]-4-yl)carbonyl]-10,11-dihydro-5H-pyrrolo[2,1-c][1,4]benzodiazepin-3-yl}[4-(1-piperidinyl)-1-piperidinyl]methanone]",76
4,"COc1cccc(-c2ccc(C(=O)N3Cc4ccc(C(=O)N(C)CCCN(C)C)n4Cc4ccccc43)cc2OC)c1 [Example 108, 10-[(2,3′-Dimethoxy[1,1′-biphenyl]-4-yl)carbonyl]-N-[3-(dimethylamino)propyl]-N-methyl-10,11-dihydro-5H-pyrrolo[2,1-c][1,4]benzodiazepine-3-carboxamide]",96
5,"COc1cccc(-c2ccc(C(=O)N3Cc4ccc(C(=O)NCCCn5ccnc5)n4Cc4ccccc43)cc2C)c1 [Example 125, N-[3-(1H-Imidazol-1-yl)propyl]-10-[(3′-methoxy-2-methyl[1,1′-biphenyl]-4-yl)carbonyl]-10,11-dihydro-5H-pyrrolo[2,1-c][1,4]benzodiazepine-3-carboxamide]",36
6,"COc1ccccc1-c1ccc(C(=O)N2Cc3ccc(C(=O)N(C)CCCN(C)C)n3Cc3ccccc32)cc1OC [Example 107, 10-[(2,2′-Dimethoxy[1,1′-biphenyl]-4-yl)carbonyl]-N-[3-(dimethylamino)propyl]-N-methyl-10,11-dihydro-5H-pyrrolo[2,1-c][1,4]benzodiazepine-3-carboxamide]",87
